Some test systems named below: HT-29; UO-31; RXF 393; KM12; HOP-62; DU-145; SF-268; CCRF-CEM; SK-OV-3; MDA-N; OVCAR-4; 786-0; BT-549; SK-MEL-2; OVCAR-5; SK-MEL-28; Malme-3M; A498; PC-3; K562.
Test in all cases: inhibition of tumour cell growth, NCI panel, 48 h

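Briefly, cells in 96-well plates were exposed to five compound concentrations for 48 h, and endpoints were estimated by linear interpolation. GI50 = concentration required for 50% inhibition of growth.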 Calls of active or inactive are those of the source. No stated cut-off is given here; in the data, active = GI50 up to about 1.1 µM and inactive = higher.

Regarding `O=C(Nc1ccccc1Cl)c1cc(S(=O)(=O)Nc2n[nH]c(=O)n2-c2ccccc2)c(S)cc1Cl`, the GI50 with HT-29, in the assay with UO-31, in the assay on RXF 393, with KM12, with HOP-62 and in the assay on DU-145 was > 100 µM (inactive) throughout. The GI50 in the assay on SF-268, in the assay on CCRF-CEM, in the assay with SK-OV-3, in the assay on MDA-N, in the assay on OVCAR-4 and in the assay on 786-0 was > 100 µM (inactive) in each case. Besides, the GI50 in the assay on BT-549, in the assay with SK-MEL-2, in the assay on OVCAR-5, with SK-MEL-28, with Malme-3M and with A498 was > 100 µM (inactive) throughout.

`COC(=O)N[C@H](C(=O)O)C(C)O[Si](C)(C)C(C)(C)C` (some centres undefined): the GI50 in the assay on HT-29, in the assay with UO-31, with RXF 393, in the assay on KM12, with HOP-62 and in the assay on DU-145 was > 100 µM (inactive) in each case. Further, the GI50 with SF-268, in the assay on PC-3, in the assay on CCRF-CEM, in the assay on SK-OV-3, in the assay on K562 and with OVCAR-4 was > 100 µM (inactive) in each case. For the same compound, the GI50 with 786-0, in the assay on BT-549, in the assay with OVCAR-5, with SK-MEL-28, in the assay on Malme-3M and in the assay on A498 was > 100 µM (inactive) throughout.

Take `COc1ccc(/C=C2\S/C(=N/Nc3nc(-c4ccccc4)cs3)NC2=O)cc1OC`: the GI50 was 15.6 µM (inactive) in the assay on UO-31; 4.5 µM (inactive) in the assay with RXF 393; 24.5 µM (inactive) in the assay with KM12; 22.1 µM (inactive) in the assay on HOP-62; 34 µM (inactive) in the assay on DU-145; 29 µM (inactive) in the assay on SF-268. Moreover, the GI50 with PC-3 is 17.4 µM (inactive); in the assay on CCRF-CEM, 4.1 µM (inactive); in the assay on SK-OV-3 it was 21.5 µM (inactive); in the assay on MDA-N, 15.4 µM (inactive); in the assay with OVCAR-4 it was 27.2 µM (inactive); with 786-0, 28.4 µM (inactive). For the same compound, the GI50 in the assay on BT-549 is 24.5 µM (inactive); with SK-MEL-2 it was 19.1 µM (inactive); in the assay with OVCAR-5, 23.4 µM (inactive); in the assay on SK-MEL-28, 32.7 µM (inactive).

As to `O=C(CNc1c(Cl)cccc1Cl)NC1C=Cc2ccc(S(=O)(=O)Nc3c(Cl)cccc3Cl)cc2C1=O` (centres undefined), the GI50 was 50.2 µM (inactive) with HT-29; 26.9 µM (inactive) in the assay with UO-31; 35.9 µM (inactive) in the assay with KM12; 41.4 µM (inactive) in the assay on HOP-62; > 100 µM (inactive) with DU-145; 48.3 µM (inactive) in the assay with SF-268. Also, the GI50 in the assay with PC-3 was 23.7 µM (inactive); with CCRF-CEM, 53.2 µM (inactive); with SK-OV-3, > 100 µM (inactive); in the assay with MDA-N, > 100 µM (inactive); in the assay with K562, > 100 µM (inactive); with OVCAR-4 it was > 100 µM (inactive). Further, the GI50 in the assay on 786-0 was > 100 µM (inactive); in the assay on BT-549, 60.7 µM (inactive); with SK-MEL-2, 56.8 µM (inactive); with OVCAR-5, 47.1 µM (inactive); with SK-MEL-28, > 100 µM (inactive); with Malme-3M, > 100 µM (inactive).

Take `COc1ccc(-c2cc(=O)c3c(OC)c(OC)c(OC)c(OC)c3o2)c(OC)c1`: the GI50 in the assay on HT-29 is 24.2 µM (inactive); in the assay with UO-31, 20.6 µM (inactive); with RXF 393, 36.7 µM (inactive); with HOP-62, 26.7 µM (inactive); with DU-145 it was 30.4 µM (inactive); with SF-268, 51.5 µM (inactive). Moreover, the GI50 in the assay on CCRF-CEM was 33.8 µM (inactive); in the assay on SK-OV-3 it was 39.8 µM (inactive); with MDA-N, 29.1 µM (inactive); in the assay with K562, 48.4 µM (inactive); with OVCAR-4, 28.3 µM (inactive); with 786-0, 32.3 µM (inactive). Also, the GI50 was 31 µM (inactive) with BT-549; 19.1 µM (inactive) in the assay on SK-MEL-2; 70.8 µM (inactive) in the assay with OVCAR-5; 42.9 µM (inactive) in the assay on SK-MEL-28; 30.5 µM (inactive) in the assay with Malme-3M; 21.6 µM (inactive) in the assay with A498.

Turning to `O=C(NC(Cc1c[nH]c2ccccc12)C(=O)Nc1ccc(Br)cc1)OCc1ccccc1` (centres undefined), the GI50 with HT-29 is 6.19 µM (inactive); in the assay on UO-31 it was 9.1 µM (inactive); with RXF 393, 9.33 µM (inactive); with KM12, 6.31 µM (inactive); with HOP-62, 11 µM (inactive); in the assay with DU-145, 13.3 µM (inactive). The GI50 in the assay on SF-268 is 12.7 µM (inactive); in the assay on PC-3, 10.4 µM (inactive); with CCRF-CEM, 3.6 µM (inactive); in the assay with SK-OV-3, 14.1 µM (inactive); in the assay on K562 it was 6.82 µM (inactive); in the assay with OVCAR-4, 9.14 µM (inactive). Moreover, the GI50 was 10.8 µM (inactive) in the assay on 786-0; 14.8 µM (inactive) with BT-549; 6.56 µM (inactive) in the assay with SK-MEL-2; 17.2 µM (inactive) with OVCAR-5; 14.3 µM (inactive) with SK-MEL-28; 11.4 µM (inactive) in the assay with Malme-3M. The GI50 in the assay with A498 was 11.4 µM (inactive).

With `COC(=O)C(Cc1ccccc1)NC(=O)CCCNC(=O)OCc1ccccc1` (centres undefined), the GI50 in the assay with HT-29 is > 100 µM (inactive); with UO-31 it was > 100 µM (inactive); in the assay on RXF 393, < 0.01 µM (active); in the assay on KM12, > 100 µM (inactive); in the assay on HOP-62, > 100 µM (inactive); in the assay with DU-145, > 100 µM (inactive). Besides, the GI50 was > 100 µM (inactive) with SF-268; > 100 µM (inactive) in the assay with PC-3; 41 µM (inactive) with CCRF-CEM; > 100 µM (inactive) in the assay on SK-OV-3; 63.7 µM (inactive) with MDA-N; > 100 µM (inactive) in the assay on K562. Also, the GI50 in the assay on OVCAR-4 is > 100 µM (inactive); in the assay with 786-0 it was > 100 µM (inactive); in the assay on BT-549 it was > 100 µM (inactive); with OVCAR-5 it was > 100 µM (inactive); in the assay on SK-MEL-28, 48.2 µM (inactive); in the assay with Malme-3M, 7.33 µM (inactive).

With `COc1ccc2nc3ccccc3c(NCCCCN(C)CCCl)c2c1`, the GI50 was 0.0178 µM (active) in the assay on HT-29; 0.107 µM (active) in the assay on UO-31; 0.0914 µM (active) in the assay with RXF 393; 0.0407 µM (active) in the assay on KM12; 0.082 µM (active) in the assay on HOP-62; 0.0537 µM (active) with DU-145. The GI50 in the assay with SF-268 was 0.0186 µM (active); in the assay on PC-3, 0.0569 µM (active); in the assay with CCRF-CEM it was 0.013 µM (active); in the assay with SK-OV-3, 0.0775 µM (active); with K562, 0.0231 µM (active); in the assay with OVCAR-4 it was 0.0889 µM (active). Moreover, the GI50 with 786-0 was 0.0177 µM (active); in the assay with BT-549, < 0.01 µM (active); with SK-MEL-2, 0.146 µM (active); in the assay with OVCAR-5, 0.186 µM (active); with SK-MEL-28 it was 0.367 µM (active); in the assay with Malme-3M, 0.33 µM (active). Moreover, in the assay with A498, the GI50 is 0.0435 µM (active).

For the compound `CN(C)CCOC1(Cc2ccc(Cl)cc2Cl)CCC(C(C)(C)C)CC1` (centres undefined), the GI50 with HT-29 was 1.52 µM (inactive); in the assay on KM12, 1.77 µM (inactive); with HOP-62 it was 1.74 µM (inactive); in the assay on SF-268 it was 5.01 µM (inactive); in the assay with PC-3 it was 1.48 µM (inactive); in the assay with CCRF-CEM, 1.86 µM (inactive). Further, the GI50 in the assay on SK-OV-3 was 2.25 µM (inactive); in the assay with MDA-N, 1.81 µM (inactive); with K562, 1.6 µM (inactive); in the assay with OVCAR-4, 1.81 µM (inactive); in the assay on 786-0, 1.83 µM (inactive); in the assay on BT-549 it was 1.63 µM (inactive). Moreover, the GI50 was 1.72 µM (inactive) with SK-MEL-2; 2.78 µM (inactive) with OVCAR-5; 1.65 µM (inactive) in the assay with SK-MEL-28; 2.25 µM (inactive) in the assay with Malme-3M; 2.88 µM (inactive) with A498.

As for `C=CCNC1=C2C[C@@H](C)C[C@@H](OC)[C@H](OC(=O)CCN)[C@H](C)/C=C(\C)[C@@H](OC(N)=O)[C@H](OC)/C=C\C=C(/C)C(=O)NC(=CC1=O)C2=O`, the GI50 is 0.409 µM (active) with HT-29; 11.2 µM (inactive) with UO-31; 4.66 µM (inactive) in the assay with RXF 393; 1.79 µM (inactive) with KM12; 3.53 µM (inactive) in the assay on HOP-62; 1.21 µM (inactive) in the assay on DU-145. The GI50 was 9.57 µM (inactive) in the assay on SF-268; 1.35 µM (inactive) in the assay with SK-OV-3; 1.21 µM (inactive) in the assay on MDA-N; 3.99 µM (inactive) with K562; 8.93 µM (inactive) in the assay on OVCAR-4; 4.38 µM (inactive) in the assay with 786-0. The GI50 in the assay on BT-549 was 7.45 µM (inactive); in the assay with SK-MEL-2, 1.9 µM (inactive); in the assay with OVCAR-5, 10.8 µM (inactive); in the assay on SK-MEL-28, 14.5 µM (inactive); with Malme-3M it was 2.67 µM (inactive); in the assay on A498 it was 3.61 µM (inactive).

Consider `CC1(C)CNC(=O)C2(CCCO2)CNC(C)(C)CNC(=O)C2(CCCO2)CN1` (centres undefined), for which the GI50 with HT-29, in the assay with KM12, in the assay on HOP-62, in the assay with DU-145, with SF-268 and in the assay on PC-3 was > 10 µM (inactive) throughout. For the same compound, the GI50 with CCRF-CEM, with SK-OV-3, in the assay on K562, in the assay on OVCAR-4, in the assay with 786-0 and with BT-549 was > 10 µM (inactive) throughout. Further, the GI50 in the assay on OVCAR-5, in the assay on SK-MEL-28 and in the assay on Malme-3M was > 10 µM (inactive) in each case.
